Counter-ions that a name gives are not always drawn.
Assays:
Solubility = assay type: physicochemical; conditions: qualitative; for solubility in alcohol: alcohol (ethyl alcohol)
[1] = Hematic levels at different times after oral administration (absorption); assay type: in vivo, Wistar rat; conditions: 100 mg/kg expressed as vincamine/apovincamine, 5% carboxymethyl cellulose suspension
Method: (§1) For the compounds of the present invention a number of pharmacological and pharmacokinetic tests have been carried out. […] As regards the pharmacological and pharmacodynamic activity, it has been studied on the percent variations of the hematic flow, as recorded at the vertebral arteria in the dog after administration of the tested compounds. As regards the pharmacokinetic tests, the compounds were administered per oral route to the Wistar rat, and the hematic levels at different times from the administration were measured.
For the evaluation of the absorption, all the compounds have been orally administered at the dosage of 100 mg/kg, expressed as vincamine and apovincamine, in form of a suspension in a 5% carboxymethyl cellulose solution.
The absorption was determined by evaulating the hematic levels at the following times (minutes) : 0, 30, 120, 240, 480, 10 hours and 12 hours, in order also to assess the time from the administration (max conc.time) the maximum absorption occurred.
The vincamine and apovincamine concentrations were assessed by chromatographic method.
For the evaluation of the prolonged action of the salts and of the adducts of vincamine and apovincamine the following criterium was adopted; as derivatives having a long-acting effect, there are considered those which, 120 minutes after the administration, show hematic levels higher than those obtained with vincamine and apovincamine.

[2] = LD50 / acute toxicity, intraperitoneal route; assay type: in vivo; conditions: i.p.; for Toxicity (Gleason): Gleason class in words, classes not defined
vertebral arteria = experiment: Cerebral vasodilating activity: hematic flow at the vertebral arteria after i.v. administration; assay type: in vivo; conditions: i.v. (femoral vein), 5 mg/kg of vincamine/apovincamine, anesthetized dog, 4 animals per compound
Method: as §1
The cerebral vasodilating activity was studied in the anestetized dog, by measuring, by means of Statham periarterial electromagnetic flowmeters, the hematic flow at the level of the […] which, in such animal species, constitutes the greatest blood supply to the brain.
The resuls are reported in the TABLE 2 (last column) as the percent variations of the flow measured at the level of the ledt vertebral arteria after the i.v. administration of the several compounds to be tested to groups of 4 animals for each compound. The results also confirm that the compounds of the invention are all endowed with a vasodilating activity at the level of the cerebral circulus, such an action being, for some compounds, much more remarkable than that of vincamine and apovincamine.

CC[C@]12CCCN3CCc4c(n(c5ccccc45)[C@@](O)(C(=O)OC)C1)[C@@H]32 [Example 5.a, Vincamine 2,6-dihydroxybenzoate]
solubility in alcohol (Solubility): insoluble | solubility in water (Solubility): insoluble | Max. conc. time ([1]; 100 mg/kg): 120 min | LD50 [2]: 550 mg/kg | Toxicity (Gleason) [2]: modest | % increase (percent variation of hematic flow, left vertebral arteria) (vertebral arteria; 5 mg/kg): 23.6%

CC[C@]12CCCN3CCc4c(n(c5ccccc45)[C@@](O)(C(=O)OC)C1)[C@@H]32 [Example 22.a, Vincamine caprate]
solubility in the common (organic) solvents (Solubility): insoluble | solubility in water (Solubility): insoluble | Max. conc. time ([1]; 100 mg/kg): 120 min | LD50 [2]: 2000 mg/kg | Toxicity (Gleason) [2]: negligible | % increase (percent variation of hematic flow, left vertebral arteria) (vertebral arteria; 5 mg/kg): 23.9%

CC[C@@]12C=C(C(=O)OC)n3c4c(c5ccccc53)CCN(CCC1)[C@H]42 [Example 18.b]
solubility in alcohol (Solubility): insoluble | solubility in water (Solubility): insoluble | Max. conc. time ([1]; 100 mg/kg): 120 min | LD50 [2]: 1500 mg/kg | Toxicity (Gleason) [2]: light | % increase (percent variation of hematic flow, left vertebral arteria) (vertebral arteria; 5 mg/kg): 33.1%

CC[C@]12CCCN3CCc4c(n(c5ccccc45)[C@@](O)(C(=O)OC)C1)[C@@H]32 [Example 26.a]
solubility in the common (organic) solvents (Solubility): insoluble | solubility in water (Solubility): insoluble | Max. conc. time ([1]; 100 mg/kg): 120 min | LD50 [2]: 1000 mg/kg | Toxicity (Gleason) [2]: modest | % increase (percent variation of hematic flow, left vertebral arteria) (vertebral arteria; 5 mg/kg): 23.8%

Vincamine tannate [Example 24.a]
solubility in alcohol (Solubility): soluble | Max. conc. time [1]: 240 min | LD50 [2]: 700 mg/kg | Toxicity (Gleason) [2]: modest | % increase (percent variation of hematic flow, left vertebral arteria) (vertebral arteria): 26.2%

CC[C@]12CCCN3CCc4c(n(c5ccccc45)[C@@](O)(C(=O)OC)C1)[C@@H]32 [Example 2.a, Vincamine 2,4-dihydroxy-benzoate]
solubility in alcohol (Solubility): soluble | Max. conc. time ([1]; 100 mg/kg): 120 min | LD50 [2]: 750 mg/kg | Toxicity (Gleason) [2]: modest | % increase (percent variation of hematic flow, left vertebral arteria) (vertebral arteria; 5 mg/kg): 24.8%

CC[C@@]12C=C(C(=O)OC)n3c4c(c5ccccc53)CCN(CCC1)[C@H]42 [Example 14.b, Apovincamine L(+)-O,O-dibenzoyltartrate]
solubility in alcohol (Solubility): soluble | Max. conc. time ([1]; 100 mg/kg): 120 min | LD50 [2]: 1500 mg/kg | Toxicity (Gleason) [2]: light | % increase (percent variation of hematic flow, left vertebral arteria) (vertebral arteria; 5 mg/kg): 31.0%

CC[C@@]12C=C(C(=O)OC)n3c4c(c5ccccc53)CCN(CCC1)[C@H]42 [Example 15.b, Apovincamine nicotinate]
solubility in alcohol (Solubility): insoluble | solubility in water (Solubility): insoluble | Max. conc. time ([1]; 100 mg/kg): 60 min | LD50 [2]: 750 mg/kg | Toxicity (Gleason) [2]: modest | % increase (percent variation of hematic flow, left vertebral arteria) (vertebral arteria; 5 mg/kg): 28.3%

CC[C@]12CCCN3CCc4c(n(c5ccccc45)[C@@](O)(C(=O)OC)C1)[C@@H]32 [Example 11.a, Vincamine 4-acetamidobutyrate]
solubility in alcohol (Solubility): insoluble | solubility in water (Solubility): insoluble | Max. conc. time ([1]; 100 mg/kg): 480 min | LD50 [2]: 700 mg/kg | Toxicity (Gleason) [2]: modest | % increase (percent variation of hematic flow, left vertebral arteria) (vertebral arteria; 5 mg/kg): 29.3%

CC[C@]12CCCN3CCc4c(n(c5ccccc45)[C@@](O)(C(=O)OC)C1)[C@@H]32 [Example 21.a]
solubility in the common (organic) solvents (Solubility): insoluble | solubility in water (Solubility): insoluble | Max. conc. time ([1]; 100 mg/kg): 20 min | LD50 [2]: 900 mg/kg | Toxicity (Gleason) [2]: modest | % increase (percent variation of hematic flow, left vertebral arteria) (vertebral arteria; 5 mg/kg): 30.0%

CC[C@@]12C=C(C(=O)OC)n3c4c(c5ccccc53)CCN(CCC1)[C@H]42 [Example 22.b, Apovincamine caprate]
solubility in alcohol (Solubility): insoluble | solubility in water (Solubility): insoluble | Max. conc. time ([1]; 100 mg/kg): 240 min | LD50 [2]: 1900 mg/kg | Toxicity (Gleason) [2]: light | % increase (percent variation of hematic flow, left vertebral arteria) (vertebral arteria; 5 mg/kg): 28.2%

Vincamine alginate [Example 23.a]
solubility in the common (organic) solvents (Solubility): insoluble | solubility in water (Solubility): insoluble | Max. conc. time [1]: 20 min | LD50 [2]: 550 mg/kg | Toxicity (Gleason) [2]: modest | % increase (percent variation of hematic flow, left vertebral arteria) (vertebral arteria): 34.7%

CC[C@]12CCCN3CCc4c(n(c5ccccc45)[C@@](O)(C(=O)OC)C1)[C@@H]32 [Example 10.a]
solubility in alcohol (Solubility): insoluble | solubility in water (Solubility): insoluble | Max. conc. time ([1]; 100 mg/kg): 240 min | LD50 [2]: 1300 mg/kg | Toxicity (Gleason) [2]: light | % increase (percent variation of hematic flow, left vertebral arteria) (vertebral arteria; 5 mg/kg): 27.9%

CC[C@@]12C=C(C(=O)OC)n3c4c(c5ccccc53)CCN(CCC1)[C@H]42 [Example 16.b, Apovincamine acetylsalicylate]
solubility in alcohol (Solubility): soluble | solubility in water (Solubility): very little soluble | Max. conc. time ([1]; 100 mg/kg): 60 min | LD50 [2]: 750 mg/kg | Toxicity (Gleason) [2]: modest | % increase (percent variation of hematic flow, left vertebral arteria) (vertebral arteria; 5 mg/kg): 40.1%

CC[C@]12CCCN3CCc4c(n(c5ccccc45)[C@@](O)(C(=O)OC)C1)[C@@H]32 [Example 13.a, Vincamine D(+)-camphorsulfonate]
solubility in alcohol (Solubility): poorly soluble | solubility in the common (organic) solvents (Solubility): insoluble | solubility in water (Solubility): soluble | Max. conc. time ([1]; 100 mg/kg): 60 min | LD50 [2]: 1350 mg/kg | Toxicity (Gleason) [2]: light | % increase (percent variation of hematic flow, left vertebral arteria) (vertebral arteria; 5 mg/kg): 30.1%

CC[C@]12CCCN3CCc4c(n(c5ccccc45)[C@@](O)(C(=O)OC)C1)[C@@H]32 [Example 8.a, Vincamine p-toluensulfonate]
solubility in alcohol (Solubility): soluble | solubility in water (Solubility): soluble | Max. conc. time ([1]; 100 mg/kg): 480 min | LD50 [2]: 1250 mg/kg | Toxicity (Gleason) [2]: light | % increase (percent variation of hematic flow, left vertebral arteria) (vertebral arteria; 5 mg/kg): 25.1%

CC[C@]12CCCN3CCc4c(n(c5ccccc45)[C@@](O)(C(=O)OC)C1)[C@@H]32 [Example 19.a, Vincamine p-chlorophenoxyacetate]
solubility in alcohol (Solubility): soluble | solubility in the common (organic) solvents (Solubility): insoluble | solubility in water (Solubility): insoluble | Max. conc. time ([1]; 100 mg/kg): 480 min | LD50 [2]: 750 mg/kg | Toxicity (Gleason) [2]: modest | % increase (percent variation of hematic flow, left vertebral arteria) (vertebral arteria; 5 mg/kg): 22.0%

CC[C@]12CCCN3CCc4c(n(c5ccccc45)[C@@](O)(C(=O)OC)C1)[C@@H]32 [Example 28.a, Vincamine salicylate]
solubility in alcohol (Solubility): soluble | solubility in the common (organic) solvents (Solubility): insoluble | solubility in water (Solubility): insoluble | Max. conc. time ([1]; 100 mg/kg): 240 min | LD50 [2]: 700 mg/kg | Toxicity (Gleason) [2]: modest | % increase (percent variation of hematic flow, left vertebral arteria) (vertebral arteria; 5 mg/kg): 25.7%

CC[C@]12CCCN3CCc4c(n(c5ccccc45)[C@@](O)(C(=O)OC)C1)[C@@H]32 [Example 20.a, Vincamine theophylline-7-acetate]
solubility in alcohol (Solubility): soluble | solubility in the common (organic) solvents (Solubility): insoluble | solubility in water (Solubility): insoluble | Max. conc. time ([1]; 100 mg/kg): 60 min | LD50 [2]: 700 mg/kg | Toxicity (Gleason) [2]: modest | % increase (percent variation of hematic flow, left vertebral arteria) (vertebral arteria; 5 mg/kg): 24.5%

CC[C@]12CCCN3CCc4c(n(c5ccccc45)[C@@](O)(C(=O)OC)C1)[C@@H]32 [Example 27.a, Vincamine hydroquinone]
solubility in the common (organic) solvents (Solubility): insoluble | solubility in water (Solubility): insoluble | Max. conc. time ([1]; 100 mg/kg): 120 min | LD50 [2]: 500 mg/kg | Toxicity (Gleason) [2]: modest | % increase (percent variation of hematic flow, left vertebral arteria) (vertebral arteria; 5 mg/kg): 29.1%

CC[C@]12CCCN3CCc4c(n(c5ccccc45)[C@@](O)(C(=O)OC)C1)[C@@H]32 [Example 4.a, Vincamine glucose-1-phosphate, acid salt]
solubility in water (Solubility): soluble | Max. conc. time ([1]; 100 mg/kg): 240 min | LD50 [2]: 700 mg/kg | Toxicity (Gleason) [2]: modest | % increase (percent variation of hematic flow, left vertebral arteria) (vertebral arteria; 5 mg/kg): 26.6%

CC[C@@]12C=C(C(=O)OC)n3c4c(c5ccccc53)CCN(CCC1)[C@H]42 [Example 21.b, Apovincamine caproate]
solubility in alcohol (Solubility): insoluble | solubility in water (Solubility): insoluble | Max. conc. time ([1]; 100 mg/kg): 60 min | LD50 [2]: 1900 mg/kg | Toxicity (Gleason) [2]: light | % increase (percent variation of hematic flow, left vertebral arteria) (vertebral arteria; 5 mg/kg): 36.4%

CC[C@]12CCCN3CCc4c(n(c5ccccc45)[C@@](O)(C(=O)OC)C1)[C@@H]32 [Example 3.a, Vincamine glucose-1-phosphate]
solubility in water (Solubility): partially soluble | Max. conc. time ([1]; 100 mg/kg): 240 min | LD50 [2]: 1150 mg/kg | Toxicity (Gleason) [2]: light | % increase (percent variation of hematic flow, left vertebral arteria) (vertebral arteria; 5 mg/kg): 29.0%
